Test results published in patent publication US8969554B2, “6-acyl-1,2,4-triazine-3,5-dione derivative and herbicides” (Kumiai Chemical Industry Co., Ltd., priority 2010, dated 2015).

Tests used:
Type in all cases: in vivo
[1] = test system: Echinochloa oryzicola; assay: Herbicidal activity by paddy field soil treatment (Test Example 1); design: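 index 0 to 10 in 10% steps of herbicidal effect with 10 meaning complete death and 0 below 10%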; details: 1000 g of effective component per hectare, evaluated on day 21 after the treatment, criteria of Table 72
In short: (§1)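 Paddy soil was watered and puddled, seeded, then flooded to 3 cm. One day later the formulation, diluted with water, went onto the water surface at 1000 g/ha of active ingredient. After 21 days in the greenhouse, effects were scored.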

[2] = test system: Monochoria vaginalis; assay: as above; design: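 index 0 to 10 in 10% steps of herbicidal effect with 10 meaning complete death and 0 below 10%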; details: 1000 g of effective component per hectare, evaluated on day 21 after the treatment, criteria of Table 72
In short: as §1

[3] = test system: Scirpus juncoides Rocxb.; assay: as above; design: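 index 0 to 10 in 10% steps of herbicidal effect with 10 meaning complete death and 0 below 10%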; details: applied on water surface, 1000 g of effective component per hectare, day 21 after the treatment
In short: as §1

[4] = test system: A. retroflexus; assay: Herbicidal activity by field soil treatment (Test example 2); design: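 index 0 to 10 in 10% steps of herbicidal effect with 10 meaning complete death and 0 below 10%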; details: 1000 g effective component per hectare, day 21 after the treatment
In short: (§2)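 Field soil filled 80 cm^2 pots; seeds were sown, covered, and the soil surface treated with a small sprayer. Dose: 1000 g/ha of active component from a water-diluted wettable powder, applied in 1000 L/ha. Greenhouse cultivation followed, with evaluation at day 21.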

[5] = test system: Echinochloa crus-galli; assay: as above; design: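 index 0 to 10 in 10% steps of herbicidal effect with 10 meaning complete death and 0 below 10%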; details: 1000 g effective component per hectare, day 21 after the treatment
In short: as §2

[6] = test system: Indian millet; assay: as above; design: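 index 0 to 10 in 10% steps of herbicidal effect with 10 meaning complete death and 0 below 10%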; details: 1000 g effective component per hectare, day 21 after the treatment
In short: as §2

[7] = test system: foxtail; assay: as above; details: 1000 g effective component per hectare, day 21 after the treatment;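 also: index 0 to 10 in 10% steps of herbicidal effect with 10 meaning complete death and 0 below 10%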
In short: as §2

[8] = test system: A. retroflexus; assay: Herbicidal activity by field foliage treatment (Test example 3); design: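 index 0 to 10 in 10% steps of herbicidal effect with 10 meaning complete death and 0 below 10%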; details: 1000 g effective component per hectare, day 14 after the treatment
In short: (§3)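 Seeds sown in field soil and kept 2 weeks in a greenhouse; foliage of the whole plant then sprayed with diluted wettable powder (1000 L/ha, 1000 g a.i./ha); plants returned to the greenhouse and scored for herbicidal effect on day 14.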

[9] = test system: Indian millet; assay: as above; design: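 index 0 to 10 in 10% steps of herbicidal effect with 10 meaning complete death and 0 below 10%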; details: 1000 g effective component per hectare, day 14 after the treatment
In short: as §3

[10] = test system: Echinochloa crus-galli; assay: as above; design: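 index 0 to 10 in 10% steps of herbicidal effect with 10 meaning complete death and 0 below 10%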; details: 1000 g effective component per hectare, day 14 after the treatment
In short: (§4)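 Herbicidal effect was rated on day 14 following a foliar spray of 1000 g active ingredient per hectare, applied as water-diluted wettable powder at 1000 L/ha. Plants had been raised for 2 weeks in field soil under greenhouse conditions before spraying.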

[11] = test system: Setaria viridis; assay: as above; details: 1000 g effective component per hectare, day 14 after the treatment;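 also: index 0 to 10 in 10% steps of herbicidal effect with 10 meaning complete death and 0 below 10%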
In short: as §4

Structure (SMILES)	Herbicidal effects index number, Echinochloa oryzicola [1]	Herbicidal effects index number, Monochoria vaginalis [2]	herbicidal effect index, S. juncoides Rocxb. [3]	herbicidal effect index, Amaranthus retroflexus [4]	herbicidal effect index, Echinochloa crus-galli [5]	herbicidal effect index, Abutilon theophrasti [6]	herbicidal effect index, Setaria viridis [7]	herbicidal effect index, Amaranthus retroflexus [8]	herbicidal effect index, Abutilon theophrasti [9]	herbicidal effect index, Echinochloa crus-galli [10]	herbicidal effect index, Setaria viridis [11]
Cn1nc(C(=O)C2=C(O)CCCC2=O)c(=O)n(-c2cc(Cl)cc(Cl)c2)c1=O [I-82]	8	10	10	10	9	9	9	10	10	10	10
Cn1nc(C(=O)C2=C(O)CCCC2=O)c(=O)n(-c2cccc(Cl)c2Cl)c1=O [I-83]	10	10	10	10	9	10	9	10	10	10	10
Cn1nc(C(=O)C2=C(O)CCCC2=O)c(=O)n(-c2ccc(Cl)cc2Cl)c1=O [I-84]	10	10	10	10	9	10	9	10	10	9	10
Cn1nc(C(=O)C2=C(O)CCCC2=O)c(=O)n(-c2cc(Cl)ccc2Cl)c1=O [I-85]	10	10	10	10	9	10	9	10	10	9	10
Cn1nc(C(=O)C2=C(O)CCCC2=O)c(=O)n(-c2c(Cl)cccc2Cl)c1=O [I-86]	10	10	10	10	10	9	9	10	10	9	9
Cc1cccc(-n2c(=O)c(C(=O)C3=C(O)CCCC3=O)nn(C)c2=O)c1C [I-89]	10	10	10	10	9	10	8	10	10	9	10
Cc1ccc(C)c(-n2c(=O)c(C(=O)C3=C(O)CCCC3=O)nn(C)c2=O)c1 [I-91]	10	10	10	10	9	10	10	10	10	9	10
Cc1cccc(C)c1-n1c(=O)c(C(=O)C2=C(O)CCCC2=O)nn(C)c1=O [I-92]	10	10	10	10	9	10	9	10	10	10	10
COc1ccc(-n2c(=O)c(C(=O)C3=C(O)CCCC3=O)nn(C)c2=O)cc1OC [I-93]	8	10	10	10	7	10	6	10	10	9	9
Cc1ccc(-n2c(=O)c(C(=O)C3=C(O)CCCC3=O)nn(C)c2=O)cc1F [I-105]	10	10	10	10	9	9	7	10	10	10	7
Cc1ccc(F)c(-n2c(=O)c(C(=O)C3=C(O)CCCC3=O)nn(C)c2=O)c1 [I-109]	10	10	10	10	9	10	6	9	9	10	7
Cc1c(F)cccc1-n1c(=O)c(C(=O)C2=C(O)CCCC2=O)nn(C)c1=O [I-116]	10	10	10	10	10	10	9	8	9	9	9
Cc1cc(F)ccc1-n1c(=O)c(C(=O)C2=C(O)CCCC2=O)nn(C)c1=O [I-117]	10	10	10	10	10	10	7	8	9	9	9
